Source: patent US20250059124A1, “METHOD FOR STORING REDUCED COENZYME Q10” (KANEKA CORPORATION, priority 2021, published 2025)

What was measured:
[1] = Oxidation stability on storage (QH residual rate by HPLC); type: physicochemical
Method: The weight ratio of reduced coenzyme Q10 to total coenzyme Q10 (namely, reduced coenzyme Q10/(oxidized coenzyme Q10+reduced coenzyme Q10)) is defined as “QH ratio”. The QH ratio was determined by the following HPLC analysis. For the evaluation of oxidation stability, a rate of the change in the QH ratio at the end of the evaluation from that at the beginning of the evaluation was defined as “QH residual rate”, and the QH residual rate determined from the following expression was used as a measure of oxidation stability.
QH residual rate (%)=100×QH ratio at the end of the evaluation/QH ratio at the beginning of the evaluation
• Column: SYMMETRY C18 (manufactured by Waters); 250 mm (length), 4.6 mm (inner diameter) • Mobile phase: C2H5OH: CH3OH=4:3 (v:v) • Detection wavelength: 210 nm • Flow rate: 1 mL/min

[2] = Water activity measurement (AquaLab Series 4TE); type: physicochemical; conditions: water activity in packaged body with controlled internal relative humidity
Method: The water activity was measured with AquaLab Series 4TE (METER Group Inc.). A sample having a volume of about 5 ml in a sample dish was placed in AquaLab Series 4TE, and the water activity at 25° C. was measured.

[3] = stored 2 weeks at 40° C., 0.2 g in opened state in packaged body of controlled relative humidity (11% or 48%)

COc1c(O)c(C)c(C/C=C(\C)CC/C=C(\C)CC/C=C(\C)CC/C=C(\C)CC/C=C(\C)CC/C=C(\C)CC/C=C(\C)CC/C=C(\C)CC/C=C(\C)CCC=C(C)C)c(O)c1OC [Comparative Example 1, reduced coenzyme Q10]
QH residual rate (%) ([1]; stored 4 weeks at 40° C. and relative humidity 75%, 0.2 g in sealed container, internal relative humidity 48%): 82.1% | Water activity [2]: 0.48

COc1c(O)c(C)c(C/C=C(\C)CC/C=C(\C)CC/C=C(\C)CC/C=C(\C)CC/C=C(\C)CC/C=C(\C)CC/C=C(\C)CC/C=C(\C)CC/C=C(\C)CCC=C(C)C)c(O)c1OC [Comparative Example 2, reduced coenzyme Q10]
QH residual rate (%) ([1]; stored 2 weeks at 40° C. and relative humidity 75%, 0.2 g in sealed container, internal relative humidity 48%): 37.2%

co-crystal composed of QH and nicotinamide [Comparative Example 3]
QH residual rate (%) [1, 3]: 82.6% | Water activity [2]: 0.48

co-crystal composed of QH and nicotinamide [Example 5]
QH residual rate (%) [1, 3]: 94.7% | Water activity [2]: 0.11
